Measurements taken from patent publication US20230012368A1 (Hoffmann-La Roche Inc., priority 2018, published 2023).
Counter-ions that a name gives are not always drawn. Like-named read-outs stand apart in the source and are kept apart here.

Tested on: Acinetobacter baumannii ATCC 17978
Experiment: Antimicrobial susceptibility testing: 90% growth inhibitory concentration (IC90) determination
Type: cell-based
Conditions: 90% growth inhibitory concentration, Acinetobacter baumannii ATCC17978, Iso-Sensitest broth, OD 600 nm over 16h, read-out: ATCC17978 IC90
Outline: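 Compounds serially twofold diluted (e.g. 50 to 0.097 μM final) in Iso-Sensitest broth, inoculated at ~5×10^(5) CFU/ml, incubated at 35±2° C. OD600 read every 20 minutes over 16h. IC90 taken as concentration inhibiting 90% of growth during logarithmic phase.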

[1] = Acinetobacter baumannii, ATCC17978, 16 h

For `CCc1cc(Nc2nccn3c(-c4ccc(OC)c(F)c4F)cnc23)ccc1C(=O)NCCCCC(=O)N1CCN[C@H](CO)C1` [Example 163, 4-[[3-(2,3-difluoro-4-methoxy-phenyl)imidazo[1,2-a]pyrazin-8-yl]amino]-2-ethyl-N-[5-[(3S)-3-(hydroxymethyl)piperazin-1-yl]-5-oxo-pentyl]benzamide], the IC90 [1] was 0.08 µM.
With `COc1ccc(-c2cnc3c(Nc4ccc5c(c4)CCN(CCCN)C5=O)nccn23)c(F)c1F` [Example 164, 2-(3-aminopropyl)-6-[[3-(2,3-difluoro-4-methoxy-phenyl)imidazo[1,2-a]pyrazin-s-yl]amino]-3,4-dihydroisoquinolin-1-one] the IC90 [1] was 0.29 µM.
Compound `COc1ccc(-c2cnc3c(Nc4ccc(C(=O)NCCCN)c(C(F)F)c4)nccn23)c(F)c1F` [Example 165, N-(3-aminopropyl)-4-[[3-(2,3-difluoro-4-methoxy-phenyl)imidazo[1,2-a]pyrazin-8-yl]amino]-2-(difluoromethyl)benzamide; formic acid] has an IC90 of 0.53 µM.
In the case of `CNC(=O)c1ccc(Nc2nccn3c(-c4ccc(OC(F)F)cc4)cnc23)cc1C(C)C` [Example 166, 4-[[3-[4-(difluoromethoxy)phenyl]imidazo[1,2-a]pyrazin-8-yl]amino]-2-isopropyl-N-methyl-benzamide], the IC90 [1] is reported as 0.98 µM.
In the case of `CNC(=O)c1ccc(Nc2nccn3c(-c4ccc(OC(F)F)cc4)cnc23)cc1C1CC1` [Example 167, 2-cyclopropyl-4-[[3-[4-(difluoromethoxy)phenyl]imidazo[1,2-a]pyrazin-8-yl]amino]-N-methyl-benzamide], the IC90 [1] is reported as 1.1 µM.
Compound `CNC(=O)c1ccc(Nc2nccn3c(-c4ccc(OC(F)F)cc4)cnc23)cc1COCCO` [Example 168, 4-[[3-[4-(difluoromethoxy)phenyl]imidazo[1,2-a]pyrazin-8-yl]amino]-2-(2-hydroxyethoxymethyl)-N-methyl-benzamide] has an IC90 [1] of 2 µM.
`CCc1cc(Nc2nccn3c(-c4ccc(OC)c(F)c4F)cnc23)ccc1C(=O)NC(C)CNC(C)=N` (stereo not drawn) [Example 169, 4-[[3-(2,3-difluoro-4-methoxyphenyl)imidazo[1,2-a]pyrazin-8-yl]amino]-N-[1-(ethanimidoylamino)propan-2-yl]-2-ethylbenzamide] showed an IC90 [1] of 0.07 µM.
Work on `Cc1cc(Nc2nccn3c(-c4ccc(OC(F)F)cc4)cnc23)ccc1C(=O)N(C)CC(=O)N1CCN(C)CC1` [Example 170, 4-[[3-[4-(difluoromethoxy)phenyl]im-idazo[1,2-a]pyrazin-8-yl]amino]-N,2-dimethyl-N-[2-(4-methylpiperazin-1-yl)-2-oxoethyl]benzamide] yielded an IC90 [1] of 1.9 µM.
Work on `Cc1cc(Nc2nccn3c(-c4ccc(OC(F)F)cc4)cnc23)ccc1C(=O)N(C)CC(=O)N(C)CC(=O)N1CCN(C)CC1` [Example 171, 4-[[3-[4-(difluoromethoxy)phenyl]im-idazo[1,2-a]pyrazin-8-yl]amino]-N,2-dimethyl-N-[2-[methyl-[2-(4-methylpiperazin-1-yl)-2-oxoethyl]amino]-2-oxoethyl]benzamide] yielded an IC90 [1] of 3.6 µM.
Compound `COc1ccc(-c2cnc3c(Nc4ccc(C(=O)N(CCN5CCNCC5)CC(F)(F)F)c(C)c4)nccn23)cc1F` [Example 172, 4-[[3-(3-fluoro-4-methoxyphenyl)imidazo[1,2-a]pyrazin-8-yl]amino]-2-methyl-N-(2-piperazin-1-ylethyl)-N-(2,2,2-trifluoroethyl)benzamide; hy-drochloride] has an IC90 [1] of 6.2 µM.
`COc1ccc(-c2cnc3c(Nc4ccc(C(=O)N(C)CC(=O)N5CCNC(C(=O)O)C5)c(C)c4)nccn23)cc1F` (stereo not drawn) [Example 173, 4-[2-[[4-[[3-(3-fluoro-4-methoxyphenyl)imidazo[1,2-a]pyrazin-8-yl]amino]-2-methylbenzoyl]-methylamino]acetyl]piperazine-2-carboxylic acid;hydrochloride] was tested, and the IC90 [1] was 8.6 µM.
`COc1ccc(-c2cnc3c(Nc4ccc(C(=O)N(C)CCCC(=O)O)c(C)c4)nccn23)cc1F` [Example 174, 4-[[4-[[3-(3-fluoro-4-methoxyphenyl)imidazo[1,2-a]pyrazin-8-yl]amino]-2-methylbenzoyl]-methylamino]butanoic acid] showed an IC90 [1] of 8.9 µM.
Work on `COc1ccc(-c2cnc3c(Nc4ccc(C(=O)N(CCN5CCNCC5)CC(F)F)c(C)c4)nccn23)cc1F` [Example 175, N-(2,2-difluoroethyl)-4-[[3-(3-fluoro-4-methoxyphenyl)imidazo[1,2-a]pyrazin-8-yl]amino]-2-methyl-N-(2-piperazin-1-ylethyl)benzamide;hydrochlo-ride] yielded an IC90 [1] of 2.3 µM.
`Cc1cc(Nc2nccn3c(-c4ccc(OC(F)F)cc4)cnc23)ccc1C(=O)NCCSc1nnnn1C` [Example 176, 4-[[3-[4-(difluoromethoxy)phenyl]im-idazo[1,2-a]pyrazin-8-yl]amino]-2-methyl-N-[2-(1-methyltetrazol-5-yl)sulfanylethyl]benzamide] gave an IC90 [1] of 0.52 µM.
`Cc1cc(Nc2nccn3c(-c4ccc(OC(F)F)cc4)cnc23)ccc1C(=O)N(C)CCCSc1nnnn1CCN(C)C` [Example 177, 4-[[3-[4-(difluoromethoxy)phenyl]im-idazo[1,2-a]pyrazin-8-yl]amino]-N-[3-[1-[2-(dimethylamino)ethyl]tetrazol-5-yl]sulfanylpropyl]-N,2-dimethylbenzamide;2,2,2-trifluoroacetic acid] was tested, and the IC90 [1] was 0.9 µM.
Compound `Cc1cc(Nc2nccn3c(-c4ccc(OC(F)F)cc4)cnc23)ccc1C(=O)N(C)CCCSc1nnnn1C` [Example 178, 4-[[3-[4-(difluoromethoxy)phenyl]im-dazo[1,2-a]pyrazin-8-yl]amino]-N,2-dimethyl-N-[3-(1-methyltetrazol-5-yl)sulfanylpropyl]benzamide] has an IC90 [1] of 1 µM.
`COc1ccc(-c2cnc3c(Nc4ccc5c(c4)CCNC5=O)nccn23)c(Cl)c1` [Example 179, 6-[[3-(2-chloro-4-methoxyphenyl)imidazo[1,2-a]pyrazin-8-yl]amino]-3,4-dihydro-2H-isoquinolin-1-one] gave an IC90 [1] of 1.7 µM.
`COc1ccc(-c2cnc3c(Nc4ccc(C(=O)N(C)C)cc4)nccn23)cc1Cl` [Example 180, 4-[[3-(3-chloro-4-methoxyphenyl)imidazo[1,2-a]pyrazin-8-yl]amino]-N,N-dimethylbenzamide;2,2,2-trifluoroacetic acid] was tested, and the IC90 [1] was 0.73 µM.
In the case of `CNC(=O)c1ccc(Nc2nccn3c(-c4ccc(OC)c(Cl)c4)cnc23)cc1` [Example 181, 4-[[3-(3-chloro-4-methoxyphenyl)imidazo[1,2-a]pyrazin-8-yl]amino]-N-methylbenzamide;2,2,2-trifluoroacetic acid], the IC90 [1] is reported as 1.3 µM.
Work on `COc1ccc(-c2cnc3c(Nc4ccc(C(=O)N(C)CCC5CCNCC5)c(C)c4)nccn23)cc1` [Example 182, 4-[[3-(4-methoxyphenyl)imidazo[1,2-a]pyrazin-8-yl]amino]-N,2-dimethyl-N-(2-piperidin-4-ylethyl)benzamide; hydrochlo-ride] yielded an IC90 [1] of 0.18 µM.
For `CCc1cc(Nc2nccn3c(-c4ccc(OC(F)F)cc4)cnc23)ccc1C(=O)NC` [Example 183, 4-[[3-[4-(difluoromethoxy)phenyl]im-idazo[1,2-a]pyrazin-8-yl]amino]-2-ethyl-N-methylbenzamide], the IC90 [1] was 0.19 µM.
For `COc1ccc(-c2cnc3c(Nc4ccc(C(=O)NCCCCCN)c(C)c4)nccn23)cc1` [Example 184, N-(5-aminopentyl)-4-[[3-(4-methoxyphenyl)imidazo[1,2-a]pyrazin-8-yl]amino]-2-methylbenzamide; hydrochlo-ride], the IC90 [1] was 0.22 µM.
`CNC(=O)c1ccc(Nc2nccn3c(-c4ccc(Cl)cc4)cnc23)cc1C` [Example 185, 4-[[3-(4-chlorophenyl)imidazo[1,2-a]pyrazin-8-yl]amino]-N,2-dimethylbenzamide] gave an IC90 [1] of 0.23 µM.
In the case of `Cc1cc(Nc2nccn3c(-c4ccc(Cl)cc4)cnc23)ccc1C(=O)NCCC1CCN(C)CC1` [Example 186, 4-[[3-(4-chlorophenyl)imidazo[1,2-a]pyrazin-8-yl]amino]-2-methyl-N-[2-(1-methylpiperidin-4-yl)ethyl]benzamide], the IC90 [1] is reported as 0.26 µM.
In the case of `COc1ccc(-c2cnc3c(Nc4ccc(C(=O)NCCCCN5CCOCC5)c(C)c4)nccn23)cc1F` [Example 187, 4-[[3-(3-fluoro-4-methoxyphenyl)imidazo[1,2-a]pyrazin-8-yl]amino]-2-methyl-N-(4-morpholin-4-ylbutyl)benzamide], the IC90 [1] is reported as 0.27 µM.
`COc1ccc(-c2cnc3c(Nc4ccc(C(=O)NCCN5CCNCC5)c(Cl)c4)nccn23)cc1F` [Example 188, 2-chloro-4-[[3-(3-fluoro-4-methoxyphenyl)imidazo[1,2-a]pyrazin-8-yl]amino]-N-(2-piperazin-1-ylethyl)benzamide;hydrochlo-ride] gave an IC90 [1] of 0.27 µM.
`Cc1cc(Nc2nccn3c(-c4ccc(Cl)cc4)cnc23)ccc1C(=O)NCCC1CCNCC1` [Example 189, 4-[[3-(4-chlorophenyl)imidazo[1,2-a]pyrazin-8-yl]amino]-2-methyl-N-(2-piperidin-4-ylethyl)benzamide;hydrochlo-ride] gave an IC90 [1] of 0.28 µM.
In the case of `CNC(=O)c1ccc(Nc2nccn3c(-c4ccc(OC(F)F)cc4)cnc23)cc1CCO` [Example 190, 4-[[3-[4-(difluoromethoxy)phenyl]im-idazo[1,2-a]pyrazin-8-yl]amino]-2-(2-hydroxyethyl)-N-methylbenzamide], the IC90 [1] is reported as 0.33 µM.
`COc1ccc(-c2cnc3c(Nc4ccc(C(=O)NCCC5CCNCC5)c(C)c4)nccn23)cc1` [Example 191, 4-[[3-(4-methoxyphenyl)imidazo[1,2-a]pyrazin-8-yl]amino]-2-methyl-N-(2-piperidin-4-ylethyl)benzamide;hydrochlo-ride] gave an IC90 [1] of 0.33 µM.
Compound `COc1ccc(-c2cnc3c(Nc4ccc(C(=O)N(C)CCCC5OCC(N)CO5)c(C)c4)nccn23)cc1F` (stereo not drawn) [Example 192, N-[3-(5-amino-1,3-dioxan-2-yl)propyl]-4-[[3-(3-fluoro-4-methoxyphenyl)imidazo[1,2-a]pyrazin-8-yl]amino]-N,2-dimethylbenzamide] has an IC90 [1] of 0.34 µM.
